pIC50: −log10 of the molar value. Counter-ions that a name gives are not always drawn. Like-named read-outs stand apart in the source and are kept apart here.
Experiments:
MIA PaCa-2 cells = assay: Gemcitabine Combination Cell Assay (Cell Titer Glo); assay type: cell-based; details: for pIC50 / IC50: Homo sapiens; for pIC50: Chk1 inhibitor alone, read-out: Chk1 IC50; for pIC50 / 10xLS / 2xLS: MIA PaCa-2 cells, 72 h; for 10xLS: approximate concentration of Chk1 inhibitor that results in a 10-fold reduction in the IC50 of gemcitabine alone; for 2xLS: approximate concentration of Chk1 inhibitor that results in a two-fold reduction in the IC50 of gemcitabine alone; for IC50: MIA PaCa-2, 72 h, read-out: Chk1 IC50 (nM)
Protocol: Gemcitabine Combination Cell Assay
Exponentially growing MIA PaCa-2 (ATCC CRL-1420) cells are treated with trypsin to remove cells from the plate surface. Approximately 10,000 cells/well are plated in 96 well plates in RPMI containing 10% fetal bovine serum, 1% sodium pyruvate and 1% L-GlutaMax. Cells are allowed to adhere to the plate surface overnight. Serial half-log dilutions of Chk1 inhibitor test compounds and gemcitabine are made with a final highest concentration of 3000 nM and 100 nM, respectively. Chk1 inhibitors and gemcitabine are combined so that each concentration of Chk1 inhibitor is added to each concentration of gemcitabine. Each drug is also tested as a single agent. Drugs are added to adherent cells (in duplicate) and incubated for 72 h. At 72 h the cells are treated with Promega Cell Titer Glo reagent for approximately 15 minutes. Luminescence (relative light units, RLU) is recorded using a BMG Polarstar Omega plate reader. The single agent concentration that results in a 50% reduction in total signal (IC50) is calculated using PRISM software and a four-parameter non-linear regression curve fit. For combination studies the RLUs are plotted using PRISM on an XY plot with the gemcitabine concentration on the X axis and RLU on the Y axis. The RLU for each concentration of Chk1 inhibitor is plotted as a function of gemcitabine concentration. The IC50 for gemcitabine alone and at each concentration of Chk1 is determined using a four-parameter non-linear regression curve fit. The approximate concentration of Chk1 inhibitor that results in a two and ten-fold reduction in the IC50 of gemcitabine alone is calculated as an indication of synergistic potency.
From the results obtained by following the above protocol, the IC50 values against MIAPaca-2 cells of the Chk1 inhibitor alone (Chk1 IC50), the approximate concentration of Chk1 inhibitor that results in a two-fold (2×LS) and a 10-fold (10×LS) reduction in the IC50 of gemcitabine alone of each of the compounds of Examples 1-154 are shown in Table 4.

Chk-1 kinase = Chk-1 kinase (Homo sapiens (Human), UniProt O14757); assay: Chk-1 Kinase Inhibiting Activity (33P-ATP filter assay, CHKtide substrate); assay type: biochemical; details: against Chk-1 kinase; read-out: IC50
Chk-1 kinase, sequence (O14757 whole entry): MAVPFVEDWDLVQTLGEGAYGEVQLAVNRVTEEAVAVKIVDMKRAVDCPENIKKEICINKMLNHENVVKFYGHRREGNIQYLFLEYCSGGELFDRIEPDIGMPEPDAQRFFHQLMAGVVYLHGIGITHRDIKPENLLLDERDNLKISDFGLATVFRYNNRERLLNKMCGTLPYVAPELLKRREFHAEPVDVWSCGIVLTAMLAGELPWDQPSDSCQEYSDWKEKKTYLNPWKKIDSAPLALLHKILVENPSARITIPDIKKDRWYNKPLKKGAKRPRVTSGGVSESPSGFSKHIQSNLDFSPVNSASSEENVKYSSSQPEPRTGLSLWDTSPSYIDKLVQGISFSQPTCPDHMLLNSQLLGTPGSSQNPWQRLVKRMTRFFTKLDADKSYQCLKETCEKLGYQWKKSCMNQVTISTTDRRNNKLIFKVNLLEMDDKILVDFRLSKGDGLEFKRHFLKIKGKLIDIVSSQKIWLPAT
Protocol: Chk-1 Kinase Inhibiting Activity
The compounds of the invention were tested for activity against Chk-1 kinase using the materials and protocols set out below.
Base Reaction buffer: 20 mM Hepes (pH 7.5), 10 mM MgCl2, 1 mM EGTA, 0.02% Brij35, 0.02 mg/ml BSA, 0.1 mM Na3VO4, 2 mM DTT, 1% DMSO
*Required cofactors are added individually to each kinase reaction
(i) Prepare indicated substrate in freshly prepared Base Reaction Buffer
(ii) Deliver any required cofactors to the substrate solution above
(iii) Deliver indicated kinase into the substrate solution and gently mix
(iv) Deliver compounds in DMSO into the kinase reaction mixture
(v) Deliver ^33P-ATP (specific activity 0.01 μCi/μl final) into the reaction mixture to initiate the reaction.
(vi) Incubate kinase reaction for 120 minutes at room temperature
(vii) Reactions are spotted onto P81 ion exchange paper (Whatman #3698-915)
(viii) Wash filters extensively in 0.1% phosphoric acid.
(ix) Dry filters and measure counts in scintillation counter
Recombinant full length construct, N-terminal GST tagged, purified from insect cells.
No special measures were taken to activate this kinase.
Final concentration in assay=0.5 nM
Peptide sequence: [[…]]
Final concentration in assay=20 μM
No additional cofactors are added to the reaction mixture
From the results obtained by following the above protocol, the IC50 values against Chk-1 kinase of each of the compounds of Examples 1-153 were determined and these are shown in Table 3.

SMILES	pIC50 (MIA PaCa-2 cells)	pIC50 (Chk-1 kinase)	10xLS (MIA PaCa-2 cells) [nM]	2xLS (MIA PaCa-2 cells) [nM]	IC50 (MIA PaCa-2 cells) [nM]
COc1cc(C2CCNCC2)ccc1-c1cc(Nc2ccc(C#N)nc2)n[nH]1 [Example 52, 5-[[5-[2-methoxy-4-(4-piperidyl)phenyl]-1H-pyrazol-3-yl]amino]pyridine-2-carbonitrile]	6.02	9.34	300	30	
COc1cc(C2CCN(C)CC2)ccc1-c1cc(Nc2ccc(C#N)nc2)n[nH]1.Cl [Example 24, 5-[[5-[2-methoxy-4-(1-methyl-4-piperidyl)phenyl]-1H-pyrazol-3-yl]amino]pyridine-2-carbonitrile hydrochloride]	6.03	9.62	300	10	
COc1cc(C2CCN(C(=O)CN(C)C)CC2)ccc1-c1cc(Nc2cnc(C#N)cn2)n[nH]1 [Example 17, 5-[[5-[4-[1-[2-(Dimethylamino)acetyl]-4-piperidyl]-2-methoxy-phenyl]-1H-pyrazol-3-yl]amino]pyrazine-2-carbonitrile hydrochloride]		9.54	300	10	1820
COc1cc(CCNCc2ccccc2)ccc1-c1cc(Nc2cnc(C#N)cn2)n[nH]1 [Example 4, 5-{5-[4-(2-Benzylamino-ethyl)-2-methoxy-phenyl]-1H-pyrazol-3-ylamino}-pyrazine-2-carbonitrile hydrochloride]		9.72			
COc1cc(C2CCNCC2)c(F)cc1-c1cc(Nc2cnc(C#N)cn2)n[nH]1 [Example 58, 5-[[5-[5-fluoro-2-methoxy-4-(4-piperidyl)phenyl]-1H-pyrazol-3-yl]amino]pyrazine-2-carbonitrile]	6.17	9.27	300	30	
CCN1CCC[C@@H]1Cc1ccc(-c2cc(Nc3cnc(C#N)cn3)n[nH]2)c(OC)c1 [Example 149, 5-[[5-[4-[[(2R)-1-ethylpyrrolidin-2-yl]methyl]-2-methoxy-phenyl]-1H-pyrazol-3-yl]amino]pyrazine-2-carbonitrile hydrochloride]			30	<3	188
COc1cc(C2CCNCC2)ccc1-c1cc(Nc2cnc(C(=O)O)cn2)n[nH]1 [Example 45, 5-[[5-[2-methoxy-4-(4-piperidyl)phenyl]-1H-pyrazol-3-yl]amino]pyrazine-2-carboxylic acid]		< 7.00			
COc1cc(CN2CC[C@@H](OC)C2)ccc1-c1cc(Nc2cnc(C#N)cn2)n[nH]1 [Example 125, 5-[[5-[2-methoxy-4-[[(3R)-3-methoxypyrrolidin-1-yl]methyl]phenyl]-1H-pyrazol-3-yl]amino]pyrazine-2-carbonitrile]	6.26		<300	10	
N#Cc1cnc(Nc2cc(-c3ccc(CNCc4ccccc4)cc3)[nH]n2)cn1 [Example 5, 5-{5-[4-(benzylamino-methyl)-phenyl]-1H-pyrazol-3-ylamino}-pyrazine-2-carbonitrile]		8.70			
COc1cc(CN2CC[C@H](OC)C2)ccc1-c1cc(Nc2cnc(C#N)cn2)n[nH]1 [Example 124, 5-[[5-[2-methoxy-4-[[(3S)-3-methoxypyrrolidin-1-yl]methyl]phenyl]-1H-pyrazol-3-yl]amino]pyrazine-2-carbonitrile]	6.49		<300	3	

The next lines start with results.

pIC50 (MIA PaCa-2 cells)	pIC50 (Chk-1 kinase)	SMILES	10xLS (MIA PaCa-2 cells) [nM]	2xLS (MIA PaCa-2 cells) [nM]	IC50 (MIA PaCa-2 cells) [nM]
6.75	10.17	COc1cc(OCC2CCN(C)CC2)ccc1-c1cc(Nc2cnc(C#N)cn2)n[nH]1 [Example 29, 5-[[5-[2-methoxy-4-[(1-methyl-4-piperidyl)methoxy]phenyl]-1H-pyrazol-3-yl]amino]pyrazine-2-carbonitrile]	100	3	
6.41	10.24	CCNCc1ccc(-c2cc(Nc3cnc(C#N)cn3)n[nH]2)c(OC)c1 [Example 90, 5-[[5-[4-(ethylaminomethyl)-2-methoxy-phenyl]-1H-pyrazol-3-yl]amino]pyrazine-2-carbonitrile]	<300	10	
6.61	10.28	COc1cc(CN(C)C(C)C)ccc1-c1cc(Nc2cnc(C#N)cn2)n[nH]1 [Example 100, 5-[[5-[4-[[isopropyl(methyl)amino]methyl]-2-methoxy-phenyl]-1H-pyrazol-3-yl]amino]pyrazine-2-carbonitrile]	<100	3	
< 5.52		COc1cc(CNC(=O)C2CC2)ccc1-c1cc(Nc2cnc(C#N)cn2)n[nH]1 [Example 13, N-[[4-[3-[(5-cyanopyrazin-2-yl)amino]-1H-pyrazol-5-yl]-3-methoxy-phenyl]methyl]cyclopropanecarboxamide]	300	~20	
6.40		COc1cc(C[C@@H]2CCCN2C(C)C)ccc1-c1cc(Nc2cnc(C#N)cn2)n[nH]1 [Example 154, 5-[[5-[4-[[(2S)-1-isopropylpyrrolidin-2-yl]methyl]-2-methoxy-phenyl]-1H-pyrazol-3-yl]amino]pyrazine-2-carbonitrile]	100	3	
7.00		COc1cc(C[C@H]2CCCN2C(C)C)ccc1-c1cc(Nc2cnc(C#N)cn2)n[nH]1 [Example 151, 5-[[5-[4-[[(2R)-1-isopropylpyrrolidin-2-yl]methyl]-2-methoxy-phenyl]-1H-pyrazol-3-yl]amino]pyrazine-2-carbonitrile]	<30	<3	
6.59		COc1cc([C@H]2CN(C(C)C)CCO2)ccc1-c1cc(Nc2cnc(C#N)cn2)n[nH]1 [Example 150, 5-[[5-[4-[(2S)-4-isopropylmorpholin-2-yl]-2-methoxy-phenyl]-1H-pyrazol-3-yl]amino]pyrazine-2-carbonitrile]	100	3	
6.37		CCN1CCC[C@H]1Cc1ccc(-c2cc(Nc3cnc(C#N)cn3)n[nH]2)c(OC)c1 [Example 152, 5-[[5-[4-[[(2S)-1-ethylpyrrolidin-2-yl]methyl]-2-methoxy-phenyl]-1H-pyrazol-3-yl]amino]pyrazine-2-carbonitrile]	100	3	
5.64		COc1cc(OCc2cocn2)ccc1-c1cc(Nc2cnc(C#N)cn2)n[nH]1 [Example 105, 5-[[5-[2-methoxy-4-(oxazol-4-ylmethoxy)phenyl]-1H-pyrazol-3-yl]amino]pyrazine-2-carbonitrile]	1000	30	
6.40		CCN1CCO[C@@H](c2ccc(-c3cc(Nc4cnc(C#N)cn4)n[nH]3)c(OC)c2)C1 [Example 120, 5-[[5-[2-methoxy-4-[(2S)-4-ethylmorpholin-2-yl]phenyl]-1H-pyrazol-3-yl]amino]pyrazine-2-carbonitrile]	100	3	
6.16		COc1cc([C@H]2CN(C)CCO2)ccc1-c1cc(Nc2cnc(C#N)cn2)n[nH]1 [Example 119, 5-[[5-[2-methoxy-4-[(2S)-4-methylmorpholin-2-yl]phenyl]-1H-pyrazol-3-yl]amino]pyrazine-2-carbonitrile]	<300	10	
5.95		COc1cc(C2CCCCN2C)ccc1-c1cc(Nc2cnc(C#N)cn2)n[nH]1 (stereo not shown) [Example 41, 5-[[5-[2-methoxy-4-(1-methyl-2-piperidyl)phenyl]-1H-pyrazol-3-yl]amino]pyrazine-2-carbonitrile]	300	30	

From patent publication US10010547B2 (CASCADIAN THERAPEUTICS, INC., priority 2014, dated 2018)
